These results are taken from patent US5502035A, “N-terminus modified analogs of LHRH” (Tap Holdings Inc., priority 1994, dated 1996).

Non-standard residues stand in square brackets, D forms with d. Residues, ends and D or L forms follow the SMILES beside them. Groups on a side chain read outwards from the residue. *: point of attachment. Shikimoyl = O=C(C1=C[C@@H](O)[C@@H](O)[C@H](O)C1)*; dPhe(4-Cl) = N[C@H](Cc1ccc(Cl)cc1)C(=O)O; d1Nal = N[C@H](Cc1cccc2ccccc12)C(=O)O; d2Nal = N[C@H](Cc1ccc2ccccc2c1)C(=O)O; Lys(iPr) = CC(C)NCCCC[C@H](N)C(=O)O; NMeY = CN[C@@H](Cc1ccc(O)cc1)C(=O)O; dCit = NC(=O)NCCC[C@@H](N)C(=O)O; d3Pal = N[C@H](Cc1cccnc1)C(=O)O; Nicotinoyl = O=C(c1cccnc1)*; Picolinoyl = O=C(c1ccccn1)*; X7 = O=C([C@H]1CCOC1)*; azaGly = NNC(=O)O

The test has as its target T1, LHRH (Rattus norvegicus, UniProt P30969).
T1 construct: endogenous in cells; host or cells: rat pituitary cells (own knowledge of the cited Haviv 1989 method)
T1 sequence (P30969 1-327): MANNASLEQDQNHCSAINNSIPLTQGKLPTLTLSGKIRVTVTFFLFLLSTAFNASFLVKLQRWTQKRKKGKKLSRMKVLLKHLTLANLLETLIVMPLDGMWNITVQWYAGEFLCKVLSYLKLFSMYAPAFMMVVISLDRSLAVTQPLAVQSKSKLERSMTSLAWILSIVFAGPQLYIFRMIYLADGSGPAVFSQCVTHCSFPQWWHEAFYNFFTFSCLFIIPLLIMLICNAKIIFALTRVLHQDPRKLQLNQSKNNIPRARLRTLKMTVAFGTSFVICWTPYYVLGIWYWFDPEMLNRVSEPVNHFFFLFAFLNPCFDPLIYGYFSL
Put plainly: in vitro test for LHRH antagonist potency (pA2). Particulars: negative logarithm of the antagonist concentration required to shift the response curve produced by the agonist leuprolide to two-fold higher concentration. Type of test: cell-based. As to the method: Representative compounds of the present invention were evaluated in an in vitro test for LHRH antagonist potency (pA2). The test employed the method detailed in F. Haviv, et al. J. Med. Chem., 32:2340-2344 (1989). The values of pA2 are the negative logarithms of the concentration of the particular antagonist test compound required to shift the response curve produced by the agonist leuprolide to two-fold higher concentration. (Leuprolide is the LHRH agonist having the structure 5-oxo-Pro^1 -His^2 -Trp^3 -Ser^4 -Tyr^5 -D-Leu^6 -Leu^7 -Arg^8 -Pro^9 -NHEt and is disclosed and claimed in U.S. Pat. No. 4,005,063.) Typically pA2 values of 9.5 or greater are indicative of good LHRH antagonist potency, with values of 10.0 or greater being preferred.
One may read the Kb as the equilibrium dissociation constant of an antagonist, usually derived from a functional assay. For `CC(C)C[C@H](NC(=O)[C@@H](CCCCNC(=O)CNC(=O)C1=C[C@@H](O)[C@@H](O)[C@H](O)C1)NC(=O)[C@H](Cc1ccc(O)cc1)N(C)C(=O)[C@H](CO)NC(=O)[C@@H](Cc1cccnc1)NC(=O)[C@@H](Cc1ccc(Cl)cc1)NC(=O)[C@@H](Cc1ccc2ccccc2c1)NC(=O)CNC(=O)c1cccnc1)C(=O)N[C@@H](CCCNC(=N)N)C(=O)N1CCC[C@H]1C(=O)N[C@H](C)C(N)=O` [Example 22, N-Nicotinyl-Gly-D2Nal-D4ClPhe-D3Pal-Ser-NMeTyr-DLys(Gly-Shik)-Leu-Arg-Pro-DAlaNH2] (Nicotinoyl-G[d2Nal][dPhe(4-Cl)][d3Pal]S[NMeY][dK]([Gly-Shikimoyl])LRP[dA]-NH2), the Kb is 0.00339 nM.

In the case of `CC(C)C[C@H](NC(=O)[C@@H](CCCCNC(=O)c1cccnc1)NC(=O)[C@H](Cc1ccc(O)cc1)N(C)C(=O)[C@H](CO)NC(=O)[C@@H](Cc1cccnc1)NC(=O)[C@@H](Cc1ccc(Cl)cc1)NC(=O)[C@@H](Cc1ccc2ccccc2c1)NC(=O)NNC(=O)c1cccnc1)C(=O)N[C@@H](CCCCNC(C)C)C(=O)N1CCC[C@H]1C(=O)N[C@H](C)C(N)=O` [Example 37b, N-Nicotinyl-Azagly-D2Nal-D4ClPhe-D3Pal-Ser-NMeTyr-DLys(Nic)-Leu-Lys(Isp)-Pro-DAlaNH2] (Nicotinoyl-[azaGly][d2Nal][dPhe(4-Cl)][d3Pal]S[NMeY][dK](Nicotinoyl)L[Lys(iPr)]P[dA]-NH2), the antagonist equilibrium constant (Kb) is 0.0158 nM.

On to `CC(C)C[C@H](NC(=O)[C@@H](CCCNC(N)=O)NC(=O)[C@H](Cc1ccc(O)cc1)N(C)C(=O)[C@H](CO)NC(=O)[C@@H](Cc1cccnc1)NC(=O)[C@@H](Cc1ccc(Cl)cc1)NC(=O)[C@@H](Cc1ccc2ccccc2c1)NC(=O)C1=C[C@@H](O)[C@@H](O)[C@H](O)C1)C(=O)N[C@@H](CCCNC(=N)N)C(=O)N1CCC[C@H]1C(=O)N[C@H](C)C(N)=O` [Example 78c, N-Shikimyl-D2Nal-D4ClPhe-D3Pal-Ser-NMeTyr-DCit-Leu-Arg-Pro-DAlaNH2] (Shikimoyl-[d2Nal][dPhe(4-Cl)][d3Pal]S[NMeY][dCit]LRP[dA]-NH2), for which the Kb is 0.0132 nM.

As to `CC(C)C[C@H](NC(=O)[C@@H](CCCCNC(=O)c1cccnc1)NC(=O)[C@H](Cc1ccc(O)cc1)N(C)C(=O)[C@H](CO)NC(=O)[C@@H](Cc1cccnc1)NC(=O)[C@@H](Cc1ccc(Cl)cc1)NC(=O)[C@@H](Cc1ccc2ccccc2c1)NC(=O)CNC(=O)[C@@H]1CCCO1)C(=O)N[C@@H](CCCCNC(C)C)C(=O)N1CCC[C@H]1C(=O)N(C)CC(N)=O` [Example 39, N-(S)-Tetrahydrofur-2-oyl-Gly-D2Nal-D4ClPhe-D3Pal-Ser-NMeTyr-DLys(Nicotinyl)-Leu-Lys(Isp)-Pro-SarNH2], the Kb was 0.0155 nM.

For the compound `CC(C)C[C@H](NC(=O)[C@@H](CCCCNC(=O)NNC(=O)c1cccnc1)NC(=O)[C@H](Cc1ccc(O)cc1)N(C)C(=O)[C@H](CO)NC(=O)[C@@H](Cc1cccnc1)NC(=O)[C@@H](Cc1ccc(Cl)cc1)NC(=O)[C@@H](Cc1ccc2ccccc2c1)NC(=O)NNC(=O)c1cccnc1)C(=O)N[C@@H](CCCCNC(C)C)C(=O)N1CCC[C@H]1C(=O)N[C@H](C)C(N)=O` [Example 31, N-Nicotinyl-Azagly-D2Nal-D4ClPhe-D3Pal-Ser-NMeTyr-DLys(Azagly-Nic)-Leu-Lys(Isp)-Pro-DAlaNH2] (Nicotinoyl-[azaGly][d2Nal][dPhe(4-Cl)][d3Pal]S[NMeY][dK]([azaGly-Nicotinoyl])L[Lys(iPr)]P[dA]-NH2), the antagonist dissociation constant (Kb) is 0.0195 nM.

For `CC[C@H](C)[C@H](NC(=O)[C@@H](CCCCNC(=O)C1=C[C@@H](O)[C@@H](O)[C@H](O)C1)NC(=O)[C@H](Cc1ccc(O)cc1)N(C)C(=O)[C@H](CO)NC(=O)[C@@H](Cc1cccnc1)NC(=O)[C@@H](Cc1ccc(Cl)cc1)NC(=O)[C@@H](Cc1ccc2ccccc2c1)NC(=O)CNC(=O)c1cccnc1)C(=O)N[C@@H](CCCNC(=N)N)C(=O)N1CCC[C@H]1C(=O)N[C@H](C)C(N)=O` [Example 23a, N-Nicotinyl-Gly-D2Nal-D4ClPhe-D3Pal-Ser-NMeTyr-DLys(Shik)-Ile-Arg-Pro-DAlaNH2] (Nicotinoyl-G[d2Nal][dPhe(4-Cl)][d3Pal]S[NMeY][dK](Shikimoyl)IRP[dA]-NH2), the Kb is 0.0195 nM.

As for `CC(C)C[C@H](NC(=O)[C@@H](CCCNC(N)=O)NC(=O)[C@H](Cc1ccc(O)cc1)N(C)C(=O)[C@H](CO)NC(=O)[C@@H](Cc1cccnc1)NC(=O)[C@@H](Cc1ccc(Cl)cc1)NC(=O)[C@@H](Cc1ccc2ccccc2c1)NC(=O)CNC(=O)C1=C[C@@H](O)[C@@H](O)[C@H](O)C1)C(=O)N[C@@H](CCCNC(=N)N)C(=O)N1CCC[C@H]1C(=O)N[C@H](C)C(N)=O` [Example 13b, N-Shikimyl-Gly-D2Nal-D4ClPhe-D3Pal-Ser-NMeTyr-DCit-Leu-Arg-Pro-DAlaNH2] (Shikimoyl-G[d2Nal][dPhe(4-Cl)][d3Pal]S[NMeY][dCit]LRP[dA]-NH2), the antagonist dissociation constant (Kb) is 0.00955 nM.

Regarding `CC(C)C[C@H](NC(=O)[C@@H](CCCCNC(=O)C1=C[C@@H](O)[C@@H](O)[C@H](O)C1)NC(=O)[C@H](Cc1ccc(O)cc1)N(C)C(=O)[C@H](CO)NC(=O)[C@@H](Cc1cccc2ccccc12)NC(=O)[C@@H](Cc1ccc(Cl)cc1)NC(=O)[C@@H](Cc1ccc2ccccc2c1)NC(=O)CNC(=O)C1=C[C@@H](O)[C@@H](O)[C@H](O)C1)C(=O)N[C@@H](CCCNC(=N)N)C(=O)N1CCC[C@H]1C(=O)N[C@H](C)C(N)=O` [Example 16, N-Shikimyl-Gly-D2Nal-D4ClPhe-D 1Nal-Ser-NMeTyr-DLys(Shik)-Leu-Arg-Pro-DAlaNH2] (Shikimoyl-G[d2Nal][dPhe(4-Cl)][d1Nal]S[NMeY][dK](Shikimoyl)LRP[dA]-NH2), the antagonist equilibrium constant (Kb) is 0.0288 nM.

With `CC(C)C[C@H](NC(=O)[C@@H](CCCCNC(=O)NNC(=O)c1cccnc1)NC(=O)[C@H](Cc1ccc(O)cc1)N(C)C(=O)[C@H](CO)NC(=O)[C@@H](Cc1cccnc1)NC(=O)[C@@H](Cc1ccc(Cl)cc1)NC(=O)[C@@H](Cc1ccc2ccccc2c1)NC(=O)CNC(=O)C1CCCO1)C(=O)N[C@@H](CCCCNC(C)C)C(=O)N1CCC[C@H]1C(=O)N[C@H](C)C(N)=O` (mixture of isomers) [Example 11, N-(R,S)Tetrahydrofur-2-oyl-Gly-D2Nal-D4ClPhe-D3Pal-Ser-NMeTyr-DLys(Azagly-Nicotinyl) -Leu-Lys(N-epsilon-Isopropyl)-Pro-DAlaNH2], the antagonist dissociation constant (Kb) is 0.038 nM.

For the compound `CC(C)C[C@H](NC(=O)[C@@H](CCCCNC(=O)C1=C[C@@H](O)[C@@H](O)[C@H](O)C1)NC(=O)[C@H](Cc1ccc(O)cc1)N(C)C(=O)[C@H](CO)NC(=O)[C@@H](Cc1cccnc1)NC(=O)[C@@H](Cc1ccc(Cl)cc1)NC(=O)[C@@H](Cc1ccc2ccccc2c1)NC(=O)[C@@H](C)NC(=O)C1=C[C@@H](O)[C@@H](O)[C@H](O)C1)C(=O)N[C@@H](CCCNC(=N)N)C(=O)N1CCC[C@H]1C(=O)N[C@H](C)C(N)=O` [Example 14d, N-Shikimyl-DAla-D2Nal-D4ClPhe-D3Pal-Ser-NMeTyr-DLys(Shik)-Leu-Arg-Pro-DAlaNH2] (Shikimoyl-[dA][d2Nal][dPhe(4-Cl)][d3Pal]S[NMeY][dK](Shikimoyl)LRP[dA]-NH2), the antagonist equilibrium constant (Kb) is 0.00891 nM.

Take `CC(C)C[C@H](NC(=O)[C@@H](CCCCNC(=O)c1cccnc1)NC(=O)[C@H](Cc1ccc(O)cc1)N(C)C(=O)[C@H](CO)NC(=O)[C@@H](Cc1cccnc1)NC(=O)[C@@H](Cc1ccc(Cl)cc1)NC(=O)[C@@H](Cc1ccc2ccccc2c1)NC(=O)[C@H]1CCOC1)C(=O)N[C@@H](CCCCNC(C)C)C(=O)N1CCC[C@H]1C(=O)N[C@H](C)C(N)=O` [Example 69, N-(S)-Tetrahydrofur-3-oyl-D2Nal-D4ClPhe-D3Pal-Ser-NMeTyr-DLys(Nic)t-Leu-Lys(Isp)-Pro-DAlaNH2] (X7-[d2Nal][dPhe(4-Cl)][d3Pal]S[NMeY][dK](Nicotinoyl)L[Lys(iPr)]P[dA]-NH2): the Kb is 0.02 nM.

Take `CC(C)C[C@H](NC(=O)[C@@H](CCCCNC(=O)C1=C[C@@H](O)[C@@H](O)[C@H](O)C1)NC(=O)[C@H](Cc1ccc(O)cc1)N(C)C(=O)[C@H](CO)NC(=O)[C@@H](Cc1cccnc1)NC(=O)[C@@H](Cc1ccc(Cl)cc1)NC(=O)[C@@H](Cc1ccc2ccccc2c1)NC(=O)[C@@H](CCCCNC(=O)C1=C[C@@H](O)[C@@H](O)[C@H](O)C1)NC(=O)c1cccnc1)C(=O)N[C@@H](CCCNC(=N)N)C(=O)N1CCC[C@H]1C(=O)N[C@H](C)C(N)=O` [Example 14i, N-Nicotinyl-DLys(Shik)-D2Nal-D4ClPhe-D3Pal-Ser-NMeTyr-DLys(Shik)-Leu-Arg-Pro-DAlaNH2] (Nicotinoyl-[dK](Shikimoyl)[d2Nal][dPhe(4-Cl)][d3Pal]S[NMeY][dK](Shikimoyl)LRP[dA]-NH2): the antagonist equilibrium constant (Kb) was 0.339 nM.

For `CC(C)C[C@H](NC(=O)[C@@H](CCCNC(N)=O)NC(=O)[C@H](Cc1ccc(O)cc1)N(C)C(=O)[C@H](CO)NC(=O)[C@@H](Cc1cccnc1)NC(=O)[C@@H](Cc1ccc(Cl)cc1)NC(=O)[C@@H](Cc1ccc2ccccc2c1)NC(=O)c1ccccn1)C(=O)N[C@@H](CCCNC(=N)N)C(=O)N1CCC[C@H]1C(=O)N[C@H](C)C(N)=O` [Example 78f, N-Picolinoyl-D2Nal-D4ClPhe-D3Pal-Ser-NMeTyr-DCit-Leu-Arg-Pro-DAlaNH2] (Picolinoyl-[d2Nal][dPhe(4-Cl)][d3Pal]S[NMeY][dCit]LRP[dA]-NH2), the antagonist dissociation constant (Kb) was 0.0316 nM.
